Data on 16 molecules can be found in patent US10189836B2, “Therapeutic compounds, compositions and methods of use thereof” (Genentech, Inc., priority 2015, dated 2019).

Experiment [1] deals with isolated recombinant JAK2 kinase domain (Homo sapiens (Human), UniProt O60674). Put plainly: JAK2 enzyme assay (Caliper LabChip, Ki). It is filed as biochemical. As to conditions: isolated recombinant JAK2 kinase domain, 0.2 nM enzyme, ATP 25 μM.
In experiment [2] the target is isolated recombinant JAK1 kinase domain (Homo sapiens (Human), UniProt P23458). Put plainly: JAK1 enzyme assay (Caliper LabChip, Ki). The format is biochemical. As to conditions: isolated recombinant JAK1 kinase domain, 1.5 nM enzyme, ATP 25 μM.
Sequence of isolated recombinant JAK1 kinase domain (P23458 875-1153): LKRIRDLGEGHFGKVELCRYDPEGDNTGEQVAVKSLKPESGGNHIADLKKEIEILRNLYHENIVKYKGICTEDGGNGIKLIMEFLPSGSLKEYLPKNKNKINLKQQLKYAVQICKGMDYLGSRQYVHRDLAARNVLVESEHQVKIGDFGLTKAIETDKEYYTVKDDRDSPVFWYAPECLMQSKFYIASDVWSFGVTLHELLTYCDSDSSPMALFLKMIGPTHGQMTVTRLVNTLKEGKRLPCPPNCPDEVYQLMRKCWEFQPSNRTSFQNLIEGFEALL

The structures appear in SMILES notation.

Sequence of isolated recombinant JAK2 kinase domain (O60674 849-1124): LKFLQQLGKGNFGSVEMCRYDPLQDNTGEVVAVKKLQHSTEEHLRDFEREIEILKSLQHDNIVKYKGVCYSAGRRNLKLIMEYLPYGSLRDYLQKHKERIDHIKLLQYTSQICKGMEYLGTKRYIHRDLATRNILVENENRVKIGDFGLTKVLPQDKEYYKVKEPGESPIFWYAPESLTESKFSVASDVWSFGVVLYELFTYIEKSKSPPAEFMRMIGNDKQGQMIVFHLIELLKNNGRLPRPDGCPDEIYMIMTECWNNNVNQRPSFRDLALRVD

As for `CN1CCN(C(=O)Cn2cc(Nc3nc4c(N5CC6CCC(C5)N6C(=O)C(C)(C)CC(F)(F)F)cccn4n3)cn2)CC1` [Example 71, 4,4,4-trifluoro-2,2-dimethyl-1-[3-[2-[[1-[2-(4-methylpiperazin-1-yl)-2-oxo-ethyl]pyrazol-4-yl]amino]-[1,2,4]triazolo[1,5-a]pyridin-8-yl]-3,8-diazabicyclo[3.2.1]octan-8-yl]butan-1-one], the Ki in experiment [1] and in experiment [2] was 1.8 nM each time.
For `O=C(Cn1cc(Nc2nc3c(N4CC5CCC(C4)N5C(=O)CCC(F)(F)F)cccn3n2)cn1)N1CCC(N2CCOCC2)CC1` [Example 74, 4,4,4-trifluoro-1-[3-[2-[[1-[2-(4-morpholino-1-piperidyl)-2-oxo-ethyl]pyrazol-4-yl]amino]-[1,2,4]triazolo[1,5-a]pyridin-8-yl]-3,8-diazabicyclo[3.2.1]octan-8-yl]butan-1-one], the Ki (usually a measure of affinity in units of concentration, obtained from inhibition or displacement) in experiment [1] amounted to 2.7 nM; in experiment [2], 1 nM.
On the same counts, the results for `CN(C)C(=O)CN1CCN(CC2CCN(C(=O)Cn3cc(Nc4nc5c(N6CC7CCC(C6)N7C(=O)CCC(F)(F)F)cccn5n4)cn3)CC2)CC1` [Example 75, N,N-dimethyl-2-[4-[[1-[2-[4-[[8-[8-(4,4,4-trifluorobutanoyl)-3,8-diazabicyclo[3.2.1]octan-3-yl]-[1,2,4]triazolo[1,5-a]pyridin-2-yl]amino]pyrazol-1-yl]acetyl]-4-piperidyl]methyl]piperazin-1-yl]acetamide] are 3.9 nM and 1.4 nM.
Take `CN1CCN(C(=O)Cn2cc(Nc3nc4c(N5CC6CCC(C5)N6C(=O)c5cccs5)cccn4n3)cn2)CC1` [Example 76, 1-(4-methylpiperazin-1-yl)-2-[4-[[8-[8-(thiophene-2-carbonyl)-3,8-diazabicyclo[3.2.1]octan-3-yl]-[1,2,4]triazolo[1,5-a]pyridin-2-yl]amino]pyrazol-1-yl]ethanone]: the Ki was 1.3 nM in experiment [1] and 0.8 nM in experiment [2].
Take `CN1CCN(C(=O)Cn2cc(Nc3nc4c(N5CC6CCC(C5)N6C(=O)CC(C)(C)C(F)(F)F)cccn4n3)cn2)CC1` [Example 77, 4,4,4-trifluoro-3,3-dimethyl-1-[3-[2-[[1-[2-(4-methylpiperazin-1-yl)-2-oxo-ethyl]pyrazol-4-yl]amino]-[1,2,4]triazolo[1,5-a]pyridin-8-yl]-3,8-diazabicyclo[3.2.1]octan-8-yl]butan-1-one]: the figures for the inhibitory constant (Ki) in experiment [1] and in experiment [2] were 2.3 nM and 1.7 nM, respectively.
Turning to `CN1CCN(C(=O)Cn2cc(Nc3nc4c(N5CC6CCC(C5)N6C(=O)c5cncs5)cccn4n3)cn2)CC1` [Example 78, 1-(4-methylpiperazin-1-yl)-2-[4-[[8-[8-(thiazole-5-carbonyl)-3,8-diazabicyclo[3.2.1]octan-3-yl]-[1,2,4]triazolo[1,5-a]pyridin-2-yl]amino]pyrazol-1-yl]ethanone], the values for the inhibition constant (Ki) in experiment [1] and in experiment [2] were 1.3 nM and 0.8 nM, respectively.
For the molecule `COC(=O)N1CCN(CC2CCN(C(=O)Cn3cc(Nc4nc5c(N6CC7CCC(C6)N7C(=O)CCC(F)(F)F)cccn5n4)cn3)CC2)CC1` [Example 79, methyl 4-[[1-[2-[4-[[8-[8-(4,4,4-trifluorobutanoyl)-3,8-diazabicyclo[3.2.1]octan-3-yl]-[1,2,4]triazolo[1,5-a]pyridin-2-yl]amino]pyrazol-1-yl]acetyl]-4-piperidyl]methyl]piperazine-1-carboxylate], the inhibitory constant (Ki) in experiment [1] was found to be 1.6 nM; in experiment [2], 0.8 nM.
On the same counts, the results for `COC(=O)C1C2CCC1CN(c1cccn3nc(Nc4cnn(CC(=O)N5CCN(C)CC5)c4)nc13)C2` (centres unmarked) [Example 80, methyl 3-[2-[[1-[2-(4-methylpiperazin-1-yl)-2-oxo-ethyl]pyrazol-4-yl]amino]-[1,2,4]triazolo[1,5-a]pyridin-8-yl]-3-azabicyclo[3.2.1]octane-8-carboxylate] are 3.1 nM and 1.5 nM.
On to `CN(C)C(=O)CN1CCN(CC2CCN(C(=O)Cn3cc(Nc4nc5c(N6CC7CCC(C6)N7C(=O)N6CC(C(F)(F)F)C6)cccn5n4)cn3)CC2)CC1` [Example 81, N,N-dimethyl-2-[4-[[1-[2-[4-[[8-[8-[3-(trifluoromethyl)azetidine-1-carbonyl]-3,8-diazabicyclo[3.2.1]octan-3-yl]-[1,2,4]triazolo[1,5-a]pyridin-2-yl]amino]pyrazol-1-yl]acetyl]-4-piperidyl]methyl]piperazin-1-yl]acetamide], for which the figures for the Ki in experiment [1] and in experiment [2] were 0.8 nM and 1 nM, respectively.
Turning to `O=C(Cn1cc(Nc2nc3c(N4CC5CCC(C4)N5C(=O)[C@H]4C[C@@H](C(F)(F)F)C4)cccn3n2)cn1)N1CCN(C2CSC2)CC1` [Example 82], the inhibitory constant (Ki) in experiment [1] came to 0.3 nM; in experiment [2], 0.4 nM.
Regarding `O=C(Cn1cc(Nc2nc3c(N4CC5CCC(C4)N5C(=O)[C@H]4C[C@H](C(F)(F)F)C4)cccn3n2)cn1)N1CCN(C2CSC2)CC1` [Example 83, 1-[4-(thietan-3-yl)piperazin-1-yl]-2-[4-[[8-[8-[3-(trifluoromethyl)cyclo-butanecarbonyl]-3,8-diazabicyclo[3.2.1]octan-3-yl]-[1,2,4]triazolo[1,5-a]pyridin-2-yl]amino]pyrazol-1-yl]ethanone], the values for the Ki in experiment [1] and in experiment [2] were 4 nM and 1.6 nM, respectively.
Taken in the same sequence, the figures for `CN1CCN(C(=O)Cn2cc(Nc3nc4c(N5C[C@H]6CC[C@@H](C5)[C@H]6OCc5cccnc5)cccn4n3)cn2)CC1` [Example 84, 1-(4-methylpiperazin-1-yl)-2-[4-[[8-[(1S,5R)-8-(3-pyridylmethoxy)-3-azabicyclo[3.2.1]octan-3-yl]-[1,2,4]triazolo[1,5-a]pyridin-2-yl]amino]pyrazol-1-yl]ethanone] were 0.8 nM and 0.4 nM.
Turning to `CN1CCN(C(=O)Cn2cc(Nc3nc4c(N5CC6CCC(C5)N6Cc5ccccc5)cccn4n3)cn2)CC1` [Example 86, 2-[4-[[8-(8-benzyl-3,8-diazabicyclo[3.2.1]octan-3-yl)-[1,2,4]triazolo[1,5-a]alpyridin-2-yl]amino]pyrazol-1-yl]-1-(4-methylpiperazin-1-yl)ethanone], the Ki in experiment [1] is 105 nM; in experiment [2], 19.2 nM.
Consider `CN1CCN(C(=O)Cn2cc(Nc3nc4c(N5CC6CCC(C5)N6C(=O)c5ccns5)cccn4n3)cn2)CC1` [Example 87, 2-[4-[[8-[8-(isothiazole-5-carbonyl)-3,8-diazabicyclo[3.2.1]octan-3-yl]-[1,2,4]triazolo[1,5-a]pyridin-2-yl]amino]pyrazol-1-yl]-1-(4-methylpiperazin-1-yl)ethanone], for which the Ki in experiment [1] stood at 0.9 nM; in experiment [2], 0.6 nM.
As for `CN1CCN(C(=O)Cn2cc(Nc3nc4c(N5CC6CCC(C5)N6S(=O)(=O)c5cccc(Cl)c5)cccn4n3)cn2)CC1` [Example 88, 2-[4-[[8-[8-(3-chlorophenyl)sulfonyl-3,8-diazabicyclo[3.2.1]octan-3-yl]-[1,2,4]triazolo[1,5-a]pyridin-2-yl]amino]pyrazol-1-yl]-1 - (4-methylpiperazin-1-yl)ethanone], the inhibition constant Ki in experiment [1] and in experiment [2] was 0.3 nM in each case.
With `CN1CCN(C(=O)Cn2cc(Nc3nc4c(N5CC6CCC(C5)N6C(=O)c5ccc(Cl)cc5)cccn4n3)cn2)CC1` [Example 89], the figures for the Ki in experiment [1] and in experiment [2] were 13.4 nM and 3.1 nM, respectively.
